Data from publication PMC12552119, “Tailored structured peptide design with a key-cutting machine approach” (Nature Machine Intelligence, 2025).
Converted amounts (≈) assume the structure as drawn. Where no end group is shown, it is not given here.

Tests used:
[1] = Mouse weight in the skin abscess model; parameters: species or system CD-1 mice; conditions: in vivo
Method: The backs of six-week-old female CD-1 mice under anaesthesia were shaved and injured with a superficial linear skin abrasion made with a needle. An aliquot of A. baumannii ATCC 19606 (2 × 10^6 CFU ml^−1; 20 μl) previously grown in LB medium until 0.5 optical density ml^−1 (optical value at 600 nm) and then washed twice with sterile PBS (pH 7.4, 9,391 g for 3 min) was added to the scratched area. Peptides diluted in sterile water at MIC value were administered to the wound area 1 h after the infection. Two and four days after infection animals were euthanized, and the scarified skin was excised, homogenized using a bead beater (25 Hz for 20 min), tenfold serially diluted, and plated on McConkey agar plates for CFU quantification. The experiments were performed using six mice per group. Mice were housed in groups of three and maintained under a 12-h light/dark cycle at 22 °C with humidity controlled at 50%. The skin abscess infection mouse model was revised and approved by University Laboratory Animal Resources from the University of Pennsylvania (protocol 806763).
Figure S6. Cytotoxicity and anti-infective activity of designed peptides. (a) Cytotoxic effects of increasing concentrations ([…]) of each peptide on human embryonic kidney (HEK293T) cells after 24 h of treatment. Mouse weight was monitored throughout the duration of the (b) skin abscess model (4 days total) and the (e) deep thigh infection model (8 days total) to assess potential toxic effects of both the bacterial load and the designed peptides. (c) Schematic of the neutropenic thigh infection mouse model, where the designed peptides were administered intraperitoneally. Anti-infective activity against A. baumannii ATCC 19606 was evaluated 4 days after intraperitoneal peptide administration (n = 6). (d) Four days after intraperitoneal injection, NE2 at its MIC (32 µmol L-1) inhibited by […]
Statistical significance in panel d was determined using one-way ANOVA followed by Dunnett’s test; P values are shown in the graphs. […]

A. baumannii ATCC 19606 [2] = assay: Cytoplasmic-membrane depolarization, DiSC3-5; format: cell-based, Acinetobacter baumannii; conditions: DiSC3-5 fluorescence, peptides at their MIC, 60 min
Method: Fig. 3 Mechanism of action and cytotoxic activity of designed peptides. a, To assess whether the peptides act on bacterial membranes, all active peptides against A. baumannii American Type Culture Collection (ATCC) 19606 were subjected to outer-membrane permeabilization, and peptides active against A. baumannii ATCC 19606 and vancomycin-resistant E. faecalis ATCC 700802 were tested in cytoplasmic-membrane depolarization assays. b, The fluorescent probe NPN was used to assess membrane permeabilization induced by the tested peptides. c,d, The fluorescent probe DiSC3-5 was used to evaluate membrane depolarization caused by the designed peptides in A. baumannii ATCC 19606 (c) and vancomycin-resistant E. faecalis ATCC 700802 (d). […] All experiments were performed in three independent replicates. […]
The cytoplasmic-membrane depolarization assay was performed using the membrane-potential-sensitive dye DiSC3-5. […] Membrane depolarization was then followed by reading changes in the fluorescence (λex = 622 nm, λem = 670 nm) over time for 60 min. The relative fluorescence was calculated using the untreated control (buffer + bacteria + fluorescent dye) as baseline and the following equation was applied to reflect the percentage difference between the baselines and the sample: percentagedifference=100×(fluorescencesample−fluorescenceuntreatedcontrol)/fluorescenceuntreatedcontrol. […]

A. baumannii ATCC 19606 [3] = format: cell-based, Acinetobacter baumannii; conditions: ATCC 19606, 24 h
Method: (§1) Fig. 2 Antimicrobial activity and secondary structure of computationally designed peptides. a, Structure prediction of the synthesized peptides. b, Heatmap of the antimicrobial activities of the peptides against 11 clinically relevant pathogens, including four strains resistant to conventional antibiotics. Briefly, 10^6 bacterial cells and serially diluted peptides (1-64 μmol l^−1) were incubated at 37 °C. One day after treatment, the optical density at 600 nm was measured in a microplate reader to evaluate bacterial growth in the presence of the peptides. MIC values in the heatmap are the mode of the replicates in each condition. c–f, Ternary plots showing the percentage of secondary structure for each peptide (at 50 μmol l^−1) in four different solvents: water (c), 60% TFE in water (d), 10 mmol l^−1 SDS in water (e) and 50% methanol (MeOH) in water (f). Secondary structure fractions were calculated using the BeStSel server. […] An error of one column cannot be fully excluded. / Panel b: AT1, AT2, AT3 and all blank cells print no number and are left out.
In this study, we used the following pathogenic bacterial strains: A. baumannii ATCC 19606, E. coli AIC221 (E. coli MG1655 phnE_2::FRT (control strain for AIC222)) and E. coli AIC222 (E. coli MG1655 pmrA53 phnE_2::FRT (polymyxin resistant; colistin-resistant strain)), Klebsiella pneumoniae ATCC 13883, Pseudomonas aeruginosa PAO1, P. aeruginosa PA14 and Staphylococcus aureus ATCC 12600. All pathogens were grown in Luria–Bertani (LB) broth and on LB agar. Pseudomonas isolation (P. aeruginosa strains) agar plates were exclusively used in the case of Pseudomonas species. In all the experiments, bacteria were inoculated from one isolated colony and grown overnight (16 h) in liquid medium at 37 °C. On the following day, inocula were diluted 1:100 in fresh media and incubated at 37 °C to mid-logarithmic phase.
(§2) Broth microdilution assays[64] were conducted to establish the MIC for each peptide. Peptides were added to untreated polystyrene 96-well microtiter plates and serially diluted twofold in sterile water, ranging from 1 to 64 μmol l^−1. A bacterial inoculum at a concentration of 10^6 CFU ml^−1 in LB medium was then mixed in a 1:1 ratio with the peptide solution. […] Each assay was performed in three independent replicates.

[4] = system: E. faecalis ATCC 700802 - VRE; format: cell-based, Enterococcus faecalis; conditions: ATCC 700802, 24 h
Method: as §1, §2

[5] = system: E. faecium ATCC 700221 - VRE; format: cell-based; conditions: ATCC 700221, 24 h
Method: as §1, §2

[6] = system: 11 clinically relevant strains, including the ESKAPEE pathogens; assay: MIC against the whole strain panel; format: cell-based; conditions: 11 strains, peptides 1-64 μmol l^-1
Source text: We synthesized 12 sequences selected for their ease of synthesis and low aggregation potential: five from AT, four from NE and three from NG. We excluded the ND group because its peptides were challenging to synthesize and solubilize. We determined their minimum inhibitory concentrations (MICs) against 11 clinically relevant strains, including the ESKAPEE pathogens. […] Further investigation is needed to confirm this hypothesis.
Fig. 2 Antimicrobial activity and secondary structure of computationally designed peptides. a, Structure prediction of the synthesized peptides. b, Heatmap of the antimicrobial activities of the peptides against 11 clinically relevant pathogens, including four strains resistant to conventional antibiotics. Briefly, 10^6 bacterial cells and serially diluted peptides (1-64 μmol l^−1) were incubated at 37 °C. One day after treatment, the optical density at 600 nm was measured in a microplate reader to evaluate bacterial growth in the presence of the peptides. MIC values in the heatmap are the mode of the replicates in each condition. c–f, Ternary plots showing the percentage of secondary structure for each peptide (at 50 μmol l^−1) in four different solvents: water (c), 60% TFE in water (d), 10 mmol l^−1 SDS in water (e) and 50% methanol (MeOH) in water (f). Secondary structure fractions were calculated using the BeStSel server. […]

HEK293T cells = assay: Cytotoxicity, MTT assay; format: cell-based, human; conditions: 24 h
Method: Fig. 3 Mechanism of action and cytotoxic activity of designed peptides. a, To assess whether the peptides act on bacterial membranes, all active peptides against A. baumannii American Type Culture Collection (ATCC) 19606 were subjected to outer-membrane permeabilization, and peptides active against A. baumannii ATCC 19606 and vancomycin-resistant E. faecalis ATCC 700802 were tested in cytoplasmic-membrane depolarization assays. b, The fluorescent probe NPN was used to assess membrane permeabilization induced by the tested peptides. c,d, The fluorescent probe DiSC3-5 was used to evaluate membrane depolarization caused by the designed peptides in A. baumannii ATCC 19606 (c) and vancomycin-resistant E. faecalis ATCC 700802 (d). […] All experiments were performed in three independent replicates. Panel a created with BioRender.com. Source data TEXT PRINTED IN THE PICTURE: (e) AT1: CC50 (μmol l^-1), HEK293T cells: 2,758 | (e) AT2: CC50 (μmol l^-1), HEK293T cells: 2 × 10^37 | (e) AT3: CC50 (μmol l^-1), HEK293T cells: 269 | (e) AT4: CC50 (μmol l^-1), HEK293T cells: 3,015 | (e) AT5: CC50 (μmol l^-1), HEK293T cells: 6 × 10^41 | (e) NE1: CC50 (μmol l^-1), HEK293T cells: 6 × 10^33 | (e) NE2: CC50 (μmol l^-1), HEK293T cells: 507 | (e) NE3: CC50 (μmol l^-1), HEK293T cells: 655 | (e) NE4: CC50 (μmol l^-1), HEK293T cells: 2 × 10^32 | (e) NG1: CC50 (μmol l^-1), HEK293T cells: 351 | (e) NG2: CC50 (μmol l^-1), HEK293T cells: 1 × 10^35 | (e) NG3: CC50 (μmol l^-1), HEK293T cells: 2 × 10^46 DOUBTS OF THE COPYIST ABOUT THIS PICTURE: AT2, CC50: small exponent, 37 or 57 / AT5, CC50: small exponent, 41 uncertain / NE1, CC50: small exponent, 33 or 38 / NE4, CC50: small exponent, 32 or 52 / NG2, CC50: small exponent, 35 or 36 / NG3, CC50: small exponent, 46 or 48 […]
HEK293T cells were obtained from the ATCC (CRL-3216). The cells were cultured in high-glucose DMEM supplemented with 1% penicillin and streptomycin (antibiotics) and 10% fetal bovine serum and grown at 37 °C in a humidified atmosphere containing 5% CO2.
One day before the experiment, an aliquot of 100 μl of the cells at 50,000 cells ml^−1 was seeded into each well of the cell-treated 96-well plates used in the experiment (that is, 5,000 cells per well)[45]. The attached HEK293T cells were then exposed to increasing concentrations of the peptides (4–64 μmol l^−1) for 24 h. After the incubation period, we performed the (3-(4,5-dimethylthiazol-2-yl)-2,5-diphenyltetrazolium bromide) tetrazolium reduction assay (MTT assay)[45]. […] The resulting salts were then resuspended in hydrochloric acid (0.04 mol l^−1) in anhydrous isopropanol and quantified by spectrophotometric measurements of absorbance at 570 nm. […]

Compound | MIC [4] [µM] | MIC [5] [µM] | CC50, cytotoxic concentration leading to 50% cell lysis (HEK293T cells) [µM] | other results
C[C@H]1COc2c(N3CCN(C)CC3)c(F)cc3c(=O)c(C(=O)O)cn1c23 [Levofloxacin, reference compound] | – | – | – | mouse weight (day 0 = 100) [1]: 105
CC[C@H](C)[C@H](NC(=O)[C@H](CS)NC(=O)[C@H](CC(C)C)NC(=O)[C@H](Cc1c[nH]c2ccccc12)NC(=O)[C@H](C)NC(=O)[C@H](CCSC)NC(=O)[C@H](C)NC(=O)[C@H](Cc1c[nH]cn1)NC(=O)[C@@H]1CCCN1)C(=O)N[C@@H](CCCNC(=N)N)C(=O)N[C@@H](Cc1ccccc1)C(=O)N[C@@H](Cc1c[nH]cn1)C(=O)O [NE1] | 8 (≈ 11.9 µg/mL) | 16 (≈ 23.7 µg/mL) | – | cytoplasmic-membrane depolarization (A. baumannii ATCC 19606 [2]): particularly effective; MIC (A. baumannii ATCC 19606 [3]): 32 µM (≈ 47.4 µg/mL)
FKLCFVLHFVAL [NE4] | 8 | – | – | –
HWHAILIHFHFA [AT1] | – | – | 2758 | MIC against at least one strain / activity in the panel [6]: inactive
HWHLILHFHACH [NG2] | 64 | 64 | – | –
HWHNKVLHWHIQ [AT3] | – | – | 268.9 | MIC against at least one strain / activity in the panel [6]: inactive
IWHAAVLHFAIS [AT5] | 64 | 32 | – | –
WHFHVWIHCIAF [NE3] | 16 | 32 | 655.4 | –
